The values below are quoted from earlier work in US7022342B2, “Controlled release oral dosage form of beta-adrenergic blocking agents” (Andrx Corporation, Inc., priority 2002, dated 2006).

The conditions of data set [1]: after oral administration of the conventional tablets.

In the case of `CC(C)NCC(O)COc1cccc2ccccc12` (centres unmarked) [Propranolol], the solubility in water entry is “freely soluble”. Moreover, the “time of peak plasma concentrations” value in data set [1] was 60 to 90 min.
